Test results from US10351561B2, “Pyrazolo[3,4-b]pyridines and imidazo[1,5-b]pyridazines as PDE1 inhibitors” (H. Lundbeck A/S, priority 2016, dated 2019).

Columns and labels:
Assay type in all cases: biochemical
[1] = target: PDE1B (Homo sapiens, UniProt Q01064); test: PDE1 inhibition assay (PDE1B), SPA with tritium labelled cAMP; conditions: 15 nM tritium labelled cAMP, 1 hr at room temperature, SPA beads; read-out: PDE1B, IC50
Description: Reactions were initiated by addition of the cyclic nucleotide substrate, and reactions were allowed to proceed for 1 hr at room temperature before being terminated through mixing with 20 μL (0.2 mg) yttrium silicate SPA beads (PerkinElmer).

[2] = target: PDE1C (Homo sapiens, UniProt Q14123); test: PDE1 inhibition assay (PDE1C), SPA with tritium labelled cAMP; conditions: 15 nM tritium labelled cAMP, 1 hr at room temperature, SPA beads
Description: (§1) PDE1A, PDE1B and PDE1C assays were performed as follows: the assays were performed in 60 μL samples containing a fixed amount of the PDE1 enzyme (sufficient to convert 20-25% of the cyclic nucleotide substrate), a buffer (50 mM HEPES (4-(2-hydroxyethyl)-1-piperazineethanesulfonic acid) pH 7.6; 10 mM MgCl2; 0.02% Tween20), 0.1 mg/ml BSA (bovine serum albumin), 15 nM tritium labelled cAMP and varying amounts of inhibitors. Reactions were initiated by addition of the cyclic nucleotide substrate, and reactions were allowed to proceed for 1 hr at room temperature before being terminated through mixing with 20 μL (0.2 mg) yttrium silicate SPA beads (PerkinElmer). The beads were allowed to settle for 1 hr in the dark before the plates were counted in a Wallac 1450 Microbeta counter. The measured signals were converted to activity relative to an uninhibited control (100%) and IC50 values were calculated using XIFit (model 205, IDBS).

[3] = target: PDE1A (Homo sapiens, UniProt P54750); test: PDE1 inhibition assay (PDE1A), SPA with tritium labelled cAMP; conditions: 15 nM tritium labelled cAMP, 1 hr at room temperature, SPA beads
Description: as §1

PDE1A, sequence (P54750 whole entry): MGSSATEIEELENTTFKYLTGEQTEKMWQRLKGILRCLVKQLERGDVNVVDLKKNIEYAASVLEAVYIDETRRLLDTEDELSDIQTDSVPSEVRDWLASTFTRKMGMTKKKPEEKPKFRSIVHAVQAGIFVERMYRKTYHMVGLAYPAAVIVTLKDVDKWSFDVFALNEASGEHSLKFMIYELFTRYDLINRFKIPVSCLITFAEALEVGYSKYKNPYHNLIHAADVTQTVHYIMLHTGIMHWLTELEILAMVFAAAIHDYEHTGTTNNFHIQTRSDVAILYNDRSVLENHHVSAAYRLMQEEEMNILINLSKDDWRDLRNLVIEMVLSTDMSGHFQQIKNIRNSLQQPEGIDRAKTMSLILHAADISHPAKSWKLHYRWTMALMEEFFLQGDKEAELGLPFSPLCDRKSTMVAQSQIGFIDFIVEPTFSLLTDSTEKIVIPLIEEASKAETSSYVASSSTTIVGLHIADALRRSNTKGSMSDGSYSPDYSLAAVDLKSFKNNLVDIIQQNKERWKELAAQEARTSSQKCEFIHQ
PDE1B, sequence (Q01064 whole entry): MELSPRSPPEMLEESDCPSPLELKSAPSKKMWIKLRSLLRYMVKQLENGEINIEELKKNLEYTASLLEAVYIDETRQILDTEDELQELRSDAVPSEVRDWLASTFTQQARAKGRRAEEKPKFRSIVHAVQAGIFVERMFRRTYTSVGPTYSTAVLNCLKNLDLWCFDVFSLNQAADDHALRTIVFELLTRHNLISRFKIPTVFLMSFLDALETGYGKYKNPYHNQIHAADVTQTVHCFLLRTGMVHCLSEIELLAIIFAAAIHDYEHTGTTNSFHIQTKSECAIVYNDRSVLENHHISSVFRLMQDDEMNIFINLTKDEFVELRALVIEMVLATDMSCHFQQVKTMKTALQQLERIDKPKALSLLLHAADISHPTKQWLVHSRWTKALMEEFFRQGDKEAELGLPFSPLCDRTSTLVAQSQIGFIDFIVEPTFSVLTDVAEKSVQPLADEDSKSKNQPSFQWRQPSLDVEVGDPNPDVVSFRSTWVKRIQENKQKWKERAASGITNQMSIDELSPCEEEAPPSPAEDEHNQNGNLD
PDE1C, sequence (Q14123 whole entry): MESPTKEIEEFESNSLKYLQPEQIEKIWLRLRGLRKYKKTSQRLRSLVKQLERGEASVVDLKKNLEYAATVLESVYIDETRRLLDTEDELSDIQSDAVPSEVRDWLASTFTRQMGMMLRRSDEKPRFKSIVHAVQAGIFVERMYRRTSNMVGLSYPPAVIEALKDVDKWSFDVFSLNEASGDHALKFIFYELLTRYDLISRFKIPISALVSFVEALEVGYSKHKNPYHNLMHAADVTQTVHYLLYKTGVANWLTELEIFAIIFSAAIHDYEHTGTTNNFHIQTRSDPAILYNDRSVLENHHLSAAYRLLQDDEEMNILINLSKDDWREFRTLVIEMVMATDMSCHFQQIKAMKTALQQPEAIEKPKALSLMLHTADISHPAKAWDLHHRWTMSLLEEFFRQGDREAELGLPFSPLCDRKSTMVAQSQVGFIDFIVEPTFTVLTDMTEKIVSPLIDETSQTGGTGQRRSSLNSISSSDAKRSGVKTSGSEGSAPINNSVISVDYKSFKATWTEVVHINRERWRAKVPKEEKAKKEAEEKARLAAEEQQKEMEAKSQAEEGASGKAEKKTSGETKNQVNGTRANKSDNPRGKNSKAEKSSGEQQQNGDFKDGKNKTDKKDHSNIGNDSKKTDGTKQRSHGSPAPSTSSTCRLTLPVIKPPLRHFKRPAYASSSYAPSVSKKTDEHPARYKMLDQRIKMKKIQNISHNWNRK

| IC50 [1] | IC50 [2] | IC50 [3] | Compound |
| --- | --- | --- | --- |
| 25 nM | 180 nM | 200 nM | CCOc1ncccc1-c1cc(NCc2nccc(C)n2)c2c(C(C)C)nn(C)c2n1 [Example 35, 6-(2-ethoxy-3-pyridyl)-3-isopropyl-1-methyl-N-[(4-methylpyrimidin-2-yl)methyl]pyrazolo[3,4-b]pyridin-4-amine] |
| 16 nM | 110 nM | 110 nM | CCOc1ncccc1-c1cc(NCc2nnc(C)o2)c2c(C(C)C)nn(C)c2n1 [Example 31, 6-(2-ethoxy-3-pyridyl)-3-isopropyl-1-methyl-N-[(5-methyl-1,3,4-oxadiazol-2-yl)methyl]pyrazolo[3,4-b]pyridin-4-amine] |
| 0.34 nM | 13 nM | 11 nM | CCOc1ncccc1-c1cc(NCc2ncn(C)n2)c2c(C(C)C)nn(C)c2n1 [Example 4, 6-(2-ethoxy-3-pyridyl)-3-isopropyl-1-methyl-N-[(1-methyl-1,2,4-triazol-3-yl)methyl]pyrazolo[3,4-b]pyridin-4-amine] |
| 1.6 nM | 33 nM | 18 nM | CCOc1ncccc1-c1cc(NCc2cn(C)nn2)c2c(C(C)C)nn(C)c2n1 [Example 29, 6-(2-ethoxy-3-pyridyl)-3-isopropyl-1-methyl-N-[(1-methyltriazol-4-yl)methyl]pyrazolo[3,4-b]pyridin-4-amine] |
| 8.9 nM | 82 nM | 68 nM | CCOc1ncccc1-c1cc(NCc2ccccn2)c2c(C(C)C)nn(C)c2n1 [Example 40, 6-(2-ethoxy-3-pyridyl)-3-isopropyl-1-methyl-N-(2-pyridylmethyl)pyrazolo[3,4-b]pyridin-4-amine] |
| 7.8 nM | 63 nM | 82 nM | CCOc1ncccc1-c1cc(NCc2nc(C)no2)c2c(C(C)C)nn(C)c2n1 [Example 32, 6-(2-ethoxy-3-pyridyl)-3-isopropyl-1-methyl-N-[(3-methyl-1,2,4-oxadiazol-5-yl)methyl]pyrazolo[3,4-b]pyridin-4-amine] |
| 15 nM | 99 nM | 81 nM | CCOc1ncccc1-c1cc(NCc2coc(C)n2)c2c(C(C)C)nn(C)c2n1 [Example 2, 6-(2-ethoxy-3-pyridyl)-3-isopropyl-1-methyl-N-[(2-methyloxazol-4-yl)methyl]pyrazolo[3,4-b]pyridin-4-amine] |
| 16 nM | 76 nM | 85 nM | CCOc1ncccc1-c1cc(NCc2cn[nH]c2)c2c(C(C)C)nn(C)c2n1 [Example 30, 6-(2-ethoxy-3-pyridyl)-3-isopropyl-1-methyl-N-(1H-pyrazol-4-ylmethyl)pyrazolo[3,4-b]pyridin-4-amine] |
| 30 nM | 45 nM | 130 nM | COc1ncccc1-c1cc(NCc2ncn(C)n2)c2c(C(C)C)nn(C)c2n1 [Example 55, 3-isopropyl-6-(2-methoxy-3-pyridyl)-1-methyl-N-[(1-methyl-1,2,4-triazol-3-yl)methyl]pyrazolo[3,4-b]pyridin-4-amine] |

More lines, now with the values behind:

| Compound | IC50 [1] | IC50 [2] | IC50 [3] |
| --- | --- | --- | --- |
| CCOc1ncccc1-c1cc(NCc2ccc(OC)nc2)c2c(C(C)C)nn(C)c2n1 [Example 37, 6-(2-ethoxy-3-pyridyl)-3-isopropyl-N-[(6-methoxy-3-pyridyl)methyl]-1-methyl-pyrazolo[3,4-b]pyridin-4-amine] | 27 nM | 46 nM | 120 nM |
| CCOc1ncccc1-c1cc(NCc2cccnc2C(F)(F)F)c2c(C(C)C)nn(C)c2n1 [Example 38, 6-(2-ethoxy-3-pyridyl)-3-isopropyl-1-methyl-N-[[2-(trifluoromethyl)-3-pyridyl]methyl]pyrazolo[3,4-b]pyridin-4-amine] | 33 nM | 180 nM | 180 nM |
| CCOc1ncccc1-c1cc(NCc2coc(C)n2)c2c(C(C)C)nc(C)n2n1 [Example 9, 2-(2-ethoxy-3-pyridyl)-5-isopropyl-7-methyl-N-[(2-methyloxazol-4-yl)methyl]imidazo[1,5-b]pyridazin-4-amine] | 4.3 nM | 29 nM | 30 nM |
| CCOc1ncccc1-c1cc(NCc2cn[nH]c2)c2c(C(C)C)nc(C)n2n1 [Example 18, 2-(2-ethoxy-3-pyridyl)-5-isopropyl-7-methyl-N-(1H-pyrazol-4-ylmethyl)imidazo[1,5-b]pyridazin-4-amine] | 5.7 nM | 16 nM | 33 nM |
| CC(C)c1nn(C)c2nc(-c3ccccc3)cc(NCc3ncn(C)n3)c12 [Example 63, 3-isopropyl-1-methyl-N-[(1-methyl-1,2,4-triazol-3-yl)methyl]-6-phenyl-pyrazolo[3,4-b]pyridin-4-amine] | 21 nM | 36 nM | 83 nM |
| CCOc1ncccc1-c1cc(NCc2ccccn2)c2c(C(C)C)nc(C)n2n1 [Example 74, 2-(2-ethoxy-3-pyridyl)-5-isopropyl-7-methyl-N-(2-pyridylmethyl)imidazo[1,5-b]pyridazin-4-amine] | 27 nM | 190 nM | 180 nM |
| Cc1cnc(-c2cc(NCc3ncn(C)n3)c3c(C(C)C)nn(C)c3n2)s1 [Example 62, 3-isopropyl-1-methyl-6-(5-methylthiazol-2-yl)-N-[(1-methyl-1,2,4-triazol-3-yl)methyl]pyrazolo[3,4-b]pyridin-4-amine] | 170 nM | 150 nM | 280 nM |
| CCOc1ncccc1-c1cc(NCc2cccc3nccn23)c2c(C(C)C)nc(C)n2n1 [Example 79, 2-(2-ethoxy-3-pyridyl)-N-(imidazo[1,2-a]pyridin-5-ylmethyl)-5-isopropyl-7-methyl-imidazo[1,5-b]pyridazin-4-amine] | 28 nM | 19 nM | 35 nM |
| CCOc1ncccc1-c1cc(NCc2ccnc(OC)c2)c2c(C(C)CC)nc(C)n2n1 (single isomer, unassigned; (+)) [Example 53, (+)-2-(2-ethoxy-3-pyridyl)-N-[(2-methoxy-4-pyridyl)methyl]-7-methyl-5-[1-methylpropyl]imidazo[1,5-b]pyridazin-4-amine] | 12 nM | 11 nM | 62 nM |
| CCOc1ncccc1-c1cc(NCc2cc(C)[nH]n2)c2c(C(C)C)nc(C)n2n1 [Example 13, 2-(2-ethoxy-3-pyridyl)-5-isopropyl-7-methyl-N-[(5-methyl-1H-pyrazol-3-yl)methyl]imidazo[1,5-b]pyridazin-4-amine] | 0.31 nM | 2.7 nM | 4.1 nM |
| CCOc1ncccc1-c1cc(NCc2ncn(C)n2)c2c(C(C)CC)nc(C)n2n1 (single isomer, unassigned; (+)) [Example 50, (+)-2-(2-ethoxy-3-pyridyl)-7-methyl-N-[(1-methyl-1,2,4-triazol-3-yl)methyl]-5-[1-methylpropyl]imidazo[1,5-b]pyridazin-4-amine] | 0.53 nM | 2.4 nM | 5.6 nM |
| CCOc1ncccc1-c1cc(NCc2cnc(C)o2)c2c(C(C)C)nc(C)n2n1 [Example 16, 2-(2-ethoxy-3-pyridyl)-5-isopropyl-7-methyl-N-[(2-methyloxazol-5-yl)methyl]imidazo[1,5-b]pyridazin-4-amine] | 2.8 nM | 16 nM | 19 nM |
| CCCOc1ncccc1-c1cc(NCc2ncn(C)n2)c2c(C(C)C)nc(C)n2n1 [Example 72, 5-isopropyl-7-methyl-N-[(1-methyl-1,2,4-triazol-3-yl)methyl]-2-(2-propoxy-3-pyridyl)imidazo[1,5-b]pyridazin-4-amine] | 0.27 nM | 1.1 nM | 1.4 nM |
| CCOc1ncccc1-c1cc(NCc2cc[nH]n2)c2c(C(C)CC)nc(C)n2n1 (single isomer, unassigned; (-)) [Example 52, (−)-2-(2-ethoxy-3-pyridyl)-7-methyl-N-(1H-pyrazol-3-ylmethyl)-5-[1-methylpropyl]imidazo[1,5-b]pyridazin-4-amine] | 0.65 nM | 6.1 nM | 12 nM |
| Cc1nc(C(C)C)c2c(NCc3ncn(C)n3)cc(-c3cccc4ncoc34)nn12 [Example 81, 2-(1,3-benzoxazol-7-yl)-5-isopropyl-7-methyl-N-[(1-methyl-1,2,4-triazol-3-yl)methyl]imidazo[1,5-b]pyridazin-4-amine] | 0.29 nM | 2.5 nM | 3.8 nM |
| CCOc1ncccc1-c1cc(NCc2ncc(F)cn2)c2c(C(C)C)nc(C)n2n1 [Example 76, 2-(2-ethoxy-3-pyridyl)-N-[(5-fluoropyrimidin-2-yl)methyl]-5-isopropyl-7-methyl-imidazo[1,5-b]pyridazin-4-amine] | 17 nM | 110 nM | 89 nM |
| CCOc1ncccc1-c1cc(NCc2cnn(C)c2)c2c(C(C)C)nn(C)c2n1 [Example 19, 6-(2-ethoxy-3-pyridyl)-3-isopropyl-1-methyl-N-[(1-methylpyrazol-4-yl)methyl]pyrazolo[3,4-b]pyridin-4-amine] | 5.8 nM | 56 nM | 44 nM |
| CCOc1ncccc1-c1cc(NCc2cn(C)cn2)c2c(C(C)C)nc(C)n2n1 [Example 8, 2-(2-ethoxy-3-pyridyl)-5-isopropyl-7-methyl-N-[(1-methylimidazol-4-yl)methyl]imidazo[1,5-b]pyridazin-4-amine] | 0.22 nM | 2.6 nM | 2.4 nM |
